Results as given in patent US6013628A, “Method for treating conditions of the eye using polypeptides” (Regents of the University of Minnesota, priority 1995, dated 2000).
No end group written: not given here.

Assays:
[1] = system: proliferative vitreoretinopathy in rabbits; test: Rabbit model of experimental proliferative vitreoretinopathy (intravitreal fibroblast injection); type: in vivo
Method: The rabbit model for proliferative vitreoretinopathy is described in Thresher et al., Graefe's Arch. Clin. Exp. Ophthalmol., 221, 192-198 (1984). Adult Dutch Belted rabbits of both sexes were used in the study. All animals were treated according to ARVO Animal Use Guidelines. All eyes were examined prior to initiation of a study and only clinically normal animals were used.
The rabbits were anesthetized using an intramuscular injection of a mix of ketamine (30 mg/kg) and xylazine (5 mg/kg). Pupils were dilated with Mydriacyl (Tropicamide) 1% and Neosynephrine 2.5% topical drops. Topical conjunctival anesthesia was provided with Proparacaine […] drops. All procedures were performed in an approved animal surgical facility. […] This site was used for subsequent intraocular injections, preventing iatrogenic retinal tears at the injection site. An intravitreal injection of 0.4 cc millipore-filtered 100% perfluoropropane gas was administered to produce a gas compression vitrectomy. Once the expansile gas bubble had absorbed, 5-10×10^4 dermal rabbit fibroblasts with or without 200 μg of polypeptide (injection volume-0.1 cc) were injected through a 27 gauge needle into the vitreous cavity. Under indirect ophthalmoscopic visualization, the tip of the needle was placed over the optic nerve head and the cells were injected in this location.
The animals were then observed for the development of proliferative vitreoretinopathy. The final stage of retinal detachment was scored from 0 to 7 using the standard grading scale shown below (see Hida et al., Graefe's Arch. Clin. Exp. Ophthalmol., 225, 1763-1769 (1991)).
Retinal photographs were taken with a wide field fundus camera (Canon) to document the final stage of retinal detachment. Animals were sacrificed while under deep anesthesia with an intravenous injection of 1 cc of euthanasia solution. The eyes were then immediately enucleated, fixed in 10% formalin, paraffin embedded, sectioned at 7 microns, and stained with hematoxylin and eosin for histology.
Three weeks following peripheral retinal cryopexy and gas compression vitrectomy, rabbit fibroblasts incubated for 1 hr with 200 ug of laminin polypeptide R37, type IV collagen polypeptide Hep-II, or BSS (balanced saline solution; control) were injected intravitreally. One eye of each rabbit received polypeptide incubated fibroblasts and the other eye received the control cells. Eyes were examined every three days, and the degree of retinal detachment was graded on the standard scale described above.

[2] = 3H-heparin; cited from earlier work
[3] = system: rabbit conjunctival fibroblasts; test: Conjunctival fibroblast proliferation, tritiated thymidine assay; type: cell-based; details: for Thymidine uptake: day 4, no drug control 8537 cpm
Source text: The failure of gluacoma treatment by filtration surgery is most often caused by scarring. Scarring requires fibroblast proliferation and fibrosis of the subconjunctive space. Proliferation of rabbit conjunctival fibroblasts was studied using the tritiated thymidine assay, which serves as an in vitro model of fibroblast proliferation in the rabbit eye (see Invest. Ophthalmol. Vis. Sci., 31, 1848-1855 (1990)). The ability of synthetic polypeptides derived from ECM molecules to inhibit conjuntival fibroblast proliferation was examined in this model.
Rabbit conjunctival fibroblasts were plated into 96-well microtiter plates at 1000 cells/well in 200 microliters of standard fibroblast culture media. Standard fibroblast culture media include Eagle's minimal essential medium containing 15% fetal bovine serum, penicillin G 100 IU/ml, streptomycin 100 μg/ml, and amphotericin B 0.25 μg/ml. Hep-II was added to the wells in concentrations ranging from 1 μg/ml to 1000 μg/ml after removing an equal volume of media to maintain 200 microliters/well. The peptide was used in concentrations of 1, 3, 7, 10, 25, 50, 100, 200, 300, 400, 500, 600, 800 and 1000 microgram/ml (experiments 1-14, respectively in FIG. 26). The tissue culture plates were incubated at 37° C. in a humidified atmosphere of 5% carbon dioxide. Two separate sets experiments were conducted. Each set of experiments was done in replicates of four. In the first set of experiments, tritiated thymidine was added 22 hours prior to each harvesting on days 4, 5, and 8. In the second set of experiments, tritiated thymidine was added 22 hours prior to each harvesting on days 4, 5, and 6. Wells with vehicle but no test compound served as negative controls (experiment #15) and cells with mitomycin-C at 100 μg/ml served as positive controls (experiment #16).

rabbit eye = test: Intravitreal polypeptide toxicity in rabbit eye (ERG, clinical observations, histology); type: in vivo
Method: The toxicity of the polypeptides was determined by three techniques:
ERG. Electroretinograms (ERG) were carried out as a functional indicator of toxicity of a polypeptide treatment. Polypeptides were injected at 200 ug and 400 ug (twice the dose that inhibited proliferative vitreoretinopathy), and ERG measurements were performed three times in each eye at various times post-injection (1 hr to 6 weeks).
Clinical observations. Observation by indirect ophthalmoscopy and slit lamp examination were performed to probe for evidence of toxicity.
Histology. Following ERG and clinical observations, the eyes were immediately enucleated, fixed in 10% formalin, paraffin embedded, sectioned at 7 microns, and stained with hematoxylin and eosin.

## LAGSCLARFSTM [Hep-II, Leu-Ala-Gly-Ser-Cys-Leu-Ala-Arg-Phe-Ser-Thr-Met]
[1]; 200 ug with 100,000 fibroblasts, seven weeks after fibroblast injection
  Retina appearance (stage 0-7 scale), fundus photograph: normal (Stage 0)
[1]; Expt I: 200 ug, 50,000 cells, RD staged at day 21, control 66%
  # Detached Retinas (%): 17%
[1]; Expt I: 200 ug, 50,000 cells, RD staged at day 21, total 6 eyes, control 4 of 6
  # Detached Retinas: 1
[1]; fibroblasts incubated 1 hr with 200 ug polypeptide, intravitreal
  Degree of retinal detachment: inhibited the degree of retinal detachment
[2]
  Heparin binding: reported to bind heparin
[3]; 800 microgram/ml
  Thymidine uptake: 580 cpm
[3]; 1000 microgram/ml
  Thymidine uptake: 589 cpm
[3]; similar to mitomycin-C
  Concentration effective in controlling fibroblast proliferation in vitro: 800-1000 microgram/ml
Rabbit eye; 6 weeks after injection of 200 ug in 0.1 ml
  Fundus appearance: indistinguishable from the control eye
Rabbit eye; intravitreal injection of 200 ug or 400 ug
  Toxic effects by clinical observations, histopathology or ERG: No toxic effects
